Like-named read-outs stand apart in the source and are kept apart here.

We go through five molecules from PMC8577994 (Cell Reports, 2021).

One series deals with HCV reporter virus JcR2a. The class given is cell-based, hepatitis C virus. Particulars: HCV infection system, Huh7-derived cells expressing CD81.
Series [1] deals with SARS-CoV-2. Put plainly: qRT-PCR-based SARS-CoV-2 replication assay in Calu-3 cells. The class given is cell-based. (Real-time PCR tracks product formation cycle by cycle.)
In a further series the test system is PI4P. Type of series: cell-based. The following applies: Huh7-Lunet/T7 cells expressing HCV NS3-5B, 1 µM for 2 h.
Series [2] relates to HA-nsp3-4-V5-induced DMVs. Type of series: cell-based.
In a further series the test system is PI3P. The class given is cell-based.
Series [3] relates to SARS-CoV-2.
Series [4] concerns SARS-CoV-2. The series is described as follows: microbe, parasite or virus in culture. Particulars: Severe acute respiratory syndrome coronavirus 2, A549-ACE2, read-out: EC50, SARS-CoV-2.
Series [5] is described as follows: in vitro. Particulars: human.
Series [6] in a line: in vitro. Particulars: human. The source holds these as a separate data set.
Another series deals with HCV. Particulars: cited from earlier work.
The nature of series [7]: in vitro. Particulars: human. The source holds these as a separate data set.

`Nc1ncc(-c2ccnc(Nc3ccncc3)n2)c(CC2CC2)n1` [PIK-III]: the “selectivity index (ratio of EC50 and CC50)” value in the series with HCV reporter virus JcR2a is greater than 10. Besides, the SARS-CoV-2 replication efficiency entry with SARS-CoV-2 [1] is “inhibition”. For the same molecule, the “elevation of PI4P (PI4P puncta)” value in the series on PI4P was “no effect”. Moreover, the “number of HA-nsp3-4-V5-induced DMVs” value in [2] was “significantly reduced”. Besides, in the series on PI3P, the “abundance of GFP-DFCP1 puncta in SARS-CoV-2-infected cells” value is “reduced”, the “abundance of GFP-DFCP1 puncta in starved cells” value is “reduced to background levels” and the “number of GFP-DFCP1 puncta in HCV-replicating cells” value is listed as “diminished”. Moreover, the “fold by which EC50 is below the CC50 value” in the series with SARS-CoV-2 [3] (A549/ACE2 cells) is no less than 250 fold. In addition, in the series with SARS-CoV-2 [3] (read-out: EC50, SARS-CoV-2), the EC50 (in general, the concentration that produces a half-maximal response) turned out to be 172 nM. Moreover, in the series with Huh7-Lunet/T7 cells, the “cell viability in HCV NS3-5B-transfected cells” value is recorded as “neither affected” and the “cell viability in SARS-CoV-2 HA-nsp3-4-V5-transfected cells” value is given as “did not affect”. In addition, the EC50 in the series on SARS-CoV-2 [4] was roughly 170 nM.

As for `COC(=O)N[C@H](C(=O)N1CCC[C@H]1c1nc(-c2ccc(-c3ccc(-c4c[nH]c([C@@H]5CCCN5C(=O)[C@@H](NC(=O)OC)C(C)C)n4)cc3)cc2)c[nH]1)C(C)C` [Daclatasvir], in the series “in vitro [5]”, the CC50 was greater than 25 nM. Also, in the series on PI3P, the “number of GFP-DFCP1 puncta in NS3-5B-expressing cells (NS5A wildtype)” value is reported as “blunted” and the “reduction of GFP-DFCP1 abundance in cells expressing NS3-5B with NS5A Y93H” value was “not observed”. Moreover, the CC50 in the series “in vitro [6]” was greater than 25 nM. Moreover, the DMV formation result in the series on HCV (NS5A inhibitor, ref Berger et al., 2014) is “block”.

`COC[C@H]1OC(=O)c2coc3c2[C@@]1(C)C1=C(C3=O)[C@@H]2CCC(=O)[C@@]2(C)C[C@H]1OC(C)=O` [wortmannin]: in the series with HCV (inhibition of PI3K activity, ref Mohl et al., 2016), the HCV replication entry is “impairs”.

For the molecule `CCC(CC)COC(=O)[C@H](C)N[P@](=O)(OC[C@H]1O[C@@](C#N)(c2ccc3c(N)ncnn23)[C@H](O)[C@@H]1O)Oc1ccccc1` [Remdesivir], the CC50 in “in vitro [7]” was greater than 10000 nM.

Take `Cn1cnc(N)c2ncnc1-2` [3-methyladenine]: the “abundance of LC3-II in HCV-infected cells” value with HCV (PI3K inhibitor, ref Su et al., 2011) was “reduces”.
